Results: ChEMBL document CHEMBL1201862, “PubChem BioAssay data set” (2004)
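A five-concentration, 48-hour dose response in 96-well plates underlies each endpoint, interpolated linearly between surrounding concentrations. Abbreviation: GI50, concentration required for 50% inhibition of growth.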 Calls of active or inactive are those of the source. No stated cut-off is given here; in the data, active = GI50 up to about 1.1 µM and inactive = higher.

How the values were obtained:
Experiment in all cases: NCI tumour cell line growth inhibition, 48 h
NCI-H522 = test system: NCI-H522
SF-539 = test system: SF-539
T47D = test system: T47D
MDA-MB-435 = test system: MDA-MB-435
NCI-H23 = test system: NCI-H23
UACC-62 = test system: UACC-62
MOLT-4 = test system: MOLT-4
SR = test system: SR
SNB-75 = test system: SNB-75
OVCAR-5 = test system: OVCAR-5
MDA-MB-231 = test system: MDA-MB-231
DU-145 = test system: DU-145
EKVX = test system: EKVX
CCRF-CEM = test system: CCRF-CEM
IGROV-1 = test system: IGROV-1
NCI/ADR-RES = test system: NCI/ADR-RES
M14 = test system: M14
K562 = test system: K562
OVCAR-4 = test system: OVCAR-4
Hs-578T = test system: Hs-578T

Row | Structure (SMILES) | GI50 (NCI-H522) | GI50 (SF-539) | GI50 (T47D) | GI50 (MDA-MB-435) | GI50 (NCI-H23) | GI50 (UACC-62) | GI50 (MOLT-4) | GI50 (SR) | GI50 (SNB-75) | GI50 (OVCAR-5) | GI50 (MDA-MB-231) | GI50 (DU-145) | GI50 (EKVX) | GI50 (CCRF-CEM) | GI50 (IGROV-1) | GI50 (NCI/ADR-RES) | GI50 (M14) | GI50 (K562) | GI50 (OVCAR-4) | GI50 (Hs-578T)
1 | N#CC1C(=O)Nc2sc(C(=O)c3ccc(Br)cc3)c(N)c2C12CCCCC2 (stereo not drawn) | 18.3 µM (inactive) | 17.2 µM (inactive) | 12.3 µM (inactive) | 18.9 µM (inactive) | 25 µM (inactive) | 18.3 µM (inactive) | 18.5 µM (inactive) | 7.96 µM (inactive) | 33.1 µM (inactive) | 40.5 µM (inactive) | 23 µM (inactive) | 23.8 µM (inactive) | 17.7 µM (inactive) | 29 µM (inactive) | 20.2 µM (inactive) | 24.9 µM (inactive) | 13.3 µM (inactive) | 23.2 µM (inactive) | 18 µM (inactive) | –
2 | CCCCC/C(=N\c1[nH]cnc1C(N)=O)OCC | 75 µM (inactive) | > 100 µM (inactive) | – | > 100 µM (inactive) | > 100 µM (inactive) | > 100 µM (inactive) | > 100 µM (inactive) | > 100 µM (inactive) | – | > 100 µM (inactive) | > 100 µM (inactive) | > 100 µM (inactive) | 32.3 µM (inactive) | > 100 µM (inactive) | > 100 µM (inactive) | > 100 µM (inactive) | 94.2 µM (inactive) | > 100 µM (inactive) | > 100 µM (inactive) | > 100 µM (inactive)
3 | C[n+]1cccc(NC(=O)c2ccc(NC(=O)C34CCC(C(=O)Nc5ccc(C(=O)Nc6ccc[n+](C)c6)cc5)(CC3)CC4)cc2)c1 | 5.42 µM (inactive) | 80.5 µM (inactive) | – | – | 56.5 µM (inactive) | > 100 µM (inactive) | 56.2 µM (inactive) | 21.3 µM (inactive) | 2.84 µM (inactive) | > 100 µM (inactive) | – | – | 26.9 µM (inactive) | 15.2 µM (inactive) | 13.5 µM (inactive) | – | > 100 µM (inactive) | 2.55 µM (inactive) | > 100 µM (inactive) | –
4 | C[C@]12CC[C@H](O)CC1=CC[C@@H]1[C@@H]2CC[C@]2(C)/C(=N/OCCN3CCCC3)CC[C@@H]12 | 13 µM (inactive) | 14.6 µM (inactive) | – | 15.8 µM (inactive) | 14.1 µM (inactive) | 15.5 µM (inactive) | 14.1 µM (inactive) | 14.8 µM (inactive) | 19.3 µM (inactive) | 28.2 µM (inactive) | 19.9 µM (inactive) | – | 10.8 µM (inactive) | – | 16.2 µM (inactive) | 18.2 µM (inactive) | – | 4.36 µM (inactive) | 16.4 µM (inactive) | 22.9 µM (inactive)
5 | CC1=CC(=O)/C(=C/NC(=S)Nc2ccc(S(N)(=O)=O)cc2)C(=O)O1 | – | > 100 µM (inactive) | > 100 µM (inactive) | > 100 µM (inactive) | > 100 µM (inactive) | > 100 µM (inactive) | > 100 µM (inactive) | – | > 100 µM (inactive) | > 100 µM (inactive) | > 100 µM (inactive) | > 100 µM (inactive) | > 100 µM (inactive) | – | > 100 µM (inactive) | > 100 µM (inactive) | > 100 µM (inactive) | – | > 100 µM (inactive) | –
6 | CC(=O)OC1COC(N2C(=O)C(=O)c3cc(Br)c([N+](=O)[O-])cc32)C(OC(C)=O)C1OC(C)=O (stereo not drawn) | 48.8 µM (inactive) | > 100 µM (inactive) | – | – | 55 µM (inactive) | 49.3 µM (inactive) | 35 µM (inactive) | 29.1 µM (inactive) | 22.5 µM (inactive) | > 100 µM (inactive) | – | – | 96.4 µM (inactive) | 37.6 µM (inactive) | > 100 µM (inactive) | – | > 100 µM (inactive) | 26.2 µM (inactive) | 42.6 µM (inactive) | –
7 | CC(C)(C)C1CCP(=O)(c2ccccc2)CC1 (stereo not drawn) | > 100 µM (inactive) | > 100 µM (inactive) | – | – | > 100 µM (inactive) | > 100 µM (inactive) | > 100 µM (inactive) | > 100 µM (inactive) | > 100 µM (inactive) | > 100 µM (inactive) | – | – | > 100 µM (inactive) | > 100 µM (inactive) | > 100 µM (inactive) | – | > 100 µM (inactive) | > 100 µM (inactive) | > 100 µM (inactive) | –
8 | C[N+](C)(C)CC(=O)N/N=C(/CC(=O)CC(C1=C(O)c2ccccc2OC1)c1ccccc1)C(=O)Nc1cccc(Cl)c1 (stereo not drawn) | > 100 µM (inactive) | > 100 µM (inactive) | > 100 µM (inactive) | – | > 100 µM (inactive) | > 100 µM (inactive) | > 100 µM (inactive) | > 100 µM (inactive) | > 100 µM (inactive) | > 100 µM (inactive) | > 100 µM (inactive) | > 100 µM (inactive) | > 100 µM (inactive) | > 100 µM (inactive) | > 100 µM (inactive) | > 100 µM (inactive) | > 100 µM (inactive) | > 100 µM (inactive) | > 100 µM (inactive) | –
9 | Cc1ccc(NC(=O)CCc2nnc3s/c(=C\c4cccc([N+](=O)[O-])c4)c(=O)n23)cc1 | 52.6 µM (inactive) | 25.3 µM (inactive) | – | – | > 100 µM (inactive) | > 100 µM (inactive) | > 100 µM (inactive) | > 100 µM (inactive) | 40.6 µM (inactive) | > 100 µM (inactive) | – | – | > 100 µM (inactive) | 66.1 µM (inactive) | > 100 µM (inactive) | – | > 100 µM (inactive) | > 100 µM (inactive) | > 100 µM (inactive) | –
10 | O=C(CCCCCCCCC(=O)NN1C(=O)/C(=C\c2ccc(O)c(O)c2)SC1c1c(O)ccc2ccccc12)NN1C(=O)C(=Cc2ccc(O)c(O)c2)SC1c1c(O)ccc2ccccc12 (stereo not drawn) | 5.75 µM (inactive) | 8.45 µM (inactive) | 11.3 µM (inactive) | > 27.2 µM (inactive) | 9.35 µM (inactive) | 4.74 µM (inactive) | 2.48 µM (inactive) | 4.42 µM (inactive) | 60.4 µM (inactive) | > 49.5 µM (inactive) | > 23.8 µM (inactive) | 8.28 µM (inactive) | 7.59 µM (inactive) | 0.828 µM (active) | 8.51 µM (inactive) | 10.6 µM (inactive) | 5.02 µM (inactive) | 5.64 µM (inactive) | 5.16 µM (inactive) | –
11 | CCc1ccccc1NC(=O)/C(CC(=O)c1c(C)[n+]([O-])c2ccccc2[n+]1[O-])=N\NS(=O)(=O)c1ccc(C)cc1 | 16.1 µM (inactive) | 36.6 µM (inactive) | – | – | 35.2 µM (inactive) | 18.9 µM (inactive) | 18 µM (inactive) | 16.6 µM (inactive) | > 100 µM (inactive) | > 100 µM (inactive) | – | – | 46 µM (inactive) | 16.7 µM (inactive) | 26.5 µM (inactive) | – | 32.8 µM (inactive) | 27.2 µM (inactive) | 22.5 µM (inactive) | –
12 | COc1cccc2c(Nc3ccc(S(=O)(=O)N=C(N)N)cc3)c3ccc([N+](=O)[O-])cc3nc12 | 6.71 µM (inactive) | 4.85 µM (inactive) | 1.35 µM (inactive) | 23.6 µM (inactive) | 14.7 µM (inactive) | 5.98 µM (inactive) | 2.29 µM (inactive) | 11.3 µM (inactive) | – | 44.6 µM (inactive) | 2.34 µM (inactive) | 8.67 µM (inactive) | 26.2 µM (inactive) | 2.38 µM (inactive) | 8.2 µM (inactive) | > 100 µM (inactive) | 16.3 µM (inactive) | 6 µM (inactive) | 37.7 µM (inactive) | –
